Data published in PubChem BioAssay (NCI).
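Five concentrations, 48 hours, 96-well plates. GI50 marks 50% less growth. The concentration for full growth arrest is given as TGI.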

Experiments:
Assay in all cases: NCI anticancer screen, dose series, 48 h
MDA-MB-435 = tested on: MDA-MB-435
CCRF-CEM leukemia = tested on: CCRF-CEM leukemia
SF-268 CNS = tested on: SF-268 CNS
HCC-2998 colon = tested on: HCC-2998 colon
NCI/ADR-RES ovarian = tested on: NCI/ADR-RES ovarian
UO-31 renal = tested on: UO-31 renal
SNB-19 CNS = tested on: SNB-19 CNS
A498 renal = tested on: A498 renal
K-562 leukemia = tested on: K-562 leukemia
MDA-MB-231 breast = tested on: MDA-MB-231 breast
UACC-257 melanoma = tested on: UACC-257 melanoma
SNB-75 CNS = tested on: SNB-75 CNS
MDA-N = tested on: MDA-N

Structure (SMILES) | TGI (MDA-MB-435) [µM] | TGI (CCRF-CEM leukemia) [µM] | TGI (SF-268 CNS) [µM] | TGI (HCC-2998 colon) [µM] | TGI (NCI/ADR-RES ovarian) [µM] | TGI (UO-31 renal) [µM] | TGI (SNB-19 CNS) [µM] | TGI (A498 renal) [µM] | TGI (K-562 leukemia) [µM] | TGI (MDA-MB-231 breast) [µM] | TGI (UACC-257 melanoma) [µM] | TGI (SNB-75 CNS) [µM] | TGI (MDA-N) [µM] | GI50 (CCRF-CEM leukemia) [µM] | GI50 (NCI/ADR-RES ovarian) [µM] | GI50 (UO-31 renal) [µM] | GI50 (A498 renal) [µM] | GI50 (MDA-MB-231 breast) [µM] | GI50 (UACC-257 melanoma) [µM]
CC(O[Si](C)(C)C(C)(C)C)[C@H](NC(=O)OCC(Cl)(Cl)Cl)C(=O)O (stereo partly specified) | > 100 | > 100 | > 100 | > 100 | > 100 | > 100 | > 100 | > 100 | > 100 | > 100 | > 100 |  |  |  |  |  |  |  | 
Cc1[nH]n(-c2ccccc2)c(=S)c1C(=O)c1ccccc1 |  | 57 | > 100 | 77.1 |  | > 100 | > 100 | 44.9 | > 100 |  | > 100 | > 100 |  |  |  |  |  |  | 
O=C(c1nsc(Cl)c1Cl)N1CCCCC1 | > 100 | > 100 | > 100 | > 100 | > 100 | > 100 | > 100 |  | > 100 | > 100 | > 100 | > 100 | > 100 |  |  |  |  |  | 
Cc1ccc(N2C(=O)/C(=c3\s/c(=C(/N)O)c(=N)n3-c3ccccc3)SC2=S)cc1 |  | > 100 | > 100 | > 100 |  | > 100 | > 100 | > 100 | > 100 |  | > 100 | 28 |  |  |  |  |  |  | 
Cc1ccc(S(=O)(=O)C2=c3ncccc3=C3C(=O)c4ccccc4C(=O)C32)cc1 (stereo unspecified) | > 100 | > 100 | > 90.3 | > 100 | > 100 | > 100 | 79.9 |  | > 100 | > 100 | > 100 | > 100 | > 100 |  |  |  |  |  | 
CC1C(c2ccccc2O)c2cc3c(cc2OC1N1CCCC1)OCO3 (stereo unspecified) | 81.9 | > 100 | > 100 | > 100 |  | > 100 | > 100 | 60.7 | 41.8 | 61.2 | 92.5 | 88 | 46.8 |  |  |  |  |  | 
CC(C)(C)SC1=CCC[C@@H](P(=O)(c2ccccc2)c2ccccc2)[C@@H]2CCC[C@@H]12 | 33.1 | 60.6 | 35.5 | 29.9 | 35.1 | 30.2 | 30.9 | 29.4 | 51.6 |  | 31.8 | 26.5 | 30.3 |  |  |  |  |  | 
COC(=O)[C@]1(c2cc3ccccc3n2S(=O)(=O)c2ccccc2)CC2CCC1NC2 (stereo partly specified) | 27.4 | 56.8 | 40 | 21.6 | 44.6 | 22.3 | 28 |  | 24.4 | 27.1 | 32 | 30.5 | 27.8 |  |  |  |  |  | 
CCOC(=O)Cn1nc2ccc(Nc3nc4ccccc4nc3C(=O)OCC)cc2n1 | > 100 | > 100 | > 100 | > 100 | > 100 | > 100 | > 100 | > 100 | > 100 |  | > 100 | 37.1 | > 100 |  |  |  |  |  | 
Cc1ccc(C2SC(N)=Nc3c2c(C)nn3C(=O)c2ccncc2)cc1 (stereo unspecified) | > 10 | > 10 | > 10 | > 10 | > 10 |  | > 10 |  | > 10 | > 10 | > 10 | > 10 | > 10 |  |  |  |  |  | 
Cc1ccc2c(c1)NC(=O)C(N=[N+]=[N-])(c1ccccc1)C2=O (stereo unspecified) |  | > 100 | > 100 | > 100 |  | 90.7 | 98.1 | > 100 | 56.6 |  | 79.7 | > 100 |  |  |  |  |  |  | 
C(/COc1cccnc1)=N\NC1=NCCN1 |  | > 100 | > 100 | > 100 |  | > 100 | > 100 | > 100 | > 100 |  | > 100 | > 100 |  |  |  |  |  |  | 
O=[N+]([O-])C(=C1Nc2ccccc2N1)C(Cl)=C(Cl)Cl | > 100 | 76 | > 100 | > 100 |  | > 100 | > 100 | > 100 | > 100 | 90.3 | > 100 | 12.4 | > 100 |  |  |  |  |  | 
O=[N+]([O-])c1cc(Cl)ccc1S(=O)(=O)c1ccccc1 | > 100 | > 100 | > 100 | > 100 | > 100 | > 100 | > 100 | > 100 | > 100 | > 100 | > 100 | > 100 |  |  |  |  |  |  | 
CC(C)CCNC(=O)c1ccc(CNC(=O)/C=C/c2ccc(-c3ccccc3[N+](=O)[O-])o2)cc1 | > 100 | > 100 | 63.1 | > 100 | > 100 | > 100 | > 100 |  | > 100 | > 100 | > 100 | > 100 | > 100 |  |  |  |  |  | 
CC[n+]1[b-](C(C)(C)C)n(/N=C(\C)C(C)(C)C)[b-](C(C)(C)C)[n+]1CC | > 100 | > 100 | > 100 | > 100 | > 100 | > 100 | > 100 |  | > 100 | > 100 | > 100 | > 100 |  |  |  |  |  |  | 

Structure (SMILES) | TGI (MDA-MB-435) [µM] | TGI (CCRF-CEM leukemia) [µM] | TGI (SF-268 CNS) [µM] | TGI (HCC-2998 colon) [µM] | TGI (NCI/ADR-RES ovarian) [µM] | TGI (UO-31 renal) [µM] | TGI (SNB-19 CNS) [µM] | TGI (A498 renal) [µM] | TGI (K-562 leukemia) [µM] | TGI (MDA-MB-231 breast) [µM] | TGI (UACC-257 melanoma) [µM] | TGI (SNB-75 CNS) [µM] | TGI (MDA-N) [µM] | GI50 (CCRF-CEM leukemia) [µM] | GI50 (NCI/ADR-RES ovarian) [µM] | GI50 (UO-31 renal) [µM] | GI50 (A498 renal) [µM] | GI50 (MDA-MB-231 breast) [µM] | GI50 (UACC-257 melanoma) [µM]
CC(C)NC(C)Cc1ccccc1 (stereo unspecified) |  | > 100 | > 100 | > 100 |  | > 100 | > 100 | > 100 | > 100 |  | > 100 | > 100 |  |  |  |  |  |  | 
Nc1nc(Cl)c2ncn(Cc3ccccc3CCl)c2n1 | 27 | > 100 | 14.5 | 6.57 | 34.6 | 45 | 27.5 | 44.3 | > 100 | 9.61 | 38.2 | 23.8 |  |  |  |  |  |  | 
CC1=NN(C(=O)c2ccc(Cl)cc2)C(=O)/C1=C/c1cccc(O)c1 |  | > 100 | > 100 | > 100 |  | > 100 | > 100 | > 100 | > 100 |  | > 100 |  |  |  |  |  |  |  | 
CCN(CC)CC(C)(C)C(=O)/C=C/c1ccc(C)cc1 |  | 19.2 | 22.1 | 21.6 |  | 22.2 | 25 | 15.5 | > 100 |  |  | 23.5 |  |  |  |  |  |  | 
Clc1ccc2c(NCCNc3nc(-c4ccccc4)cc(-c4ccccc4)n3)ccnc2c1 |  | 5.83 |  |  | 3.6 | 3.01 |  | 5.61 |  | 3.44 | 3.98 |  |  | 2.32 | 1.77 | 1.54 | 2.15 | 1.85 | 2.03
COC(CNC(=O)C(C)NC(=O)C(C)NC(=O)c1ccccc1)OC (stereo unspecified) | > 100 | > 100 | > 100 |  | > 100 |  |  |  | > 100 | > 100 | > 100 | > 100 | > 100 |  |  |  |  |  | 
CNC(=O)N(CCC#N)CCN(CCN(C(=O)NC)c1ccccc1)C(=O)NC | > 100 | > 100 |  | > 100 | > 100 | > 100 | > 100 |  | > 100 | > 100 | > 100 | > 100 | > 100 |  |  |  |  |  | 
C[n+]1c2ccccc2c(NC(CCC(N)=O)C(=O)O)c2ccccc21 (stereo unspecified) |  |  | > 100 | > 100 |  | > 100 | > 100 | > 100 | > 100 |  | > 100 | > 100 |  |  |  |  |  |  | 
OCCOCCO[P+]1(OCCOCCO)n2c3ccc2C(c2ccccc2)=C2C=CC(=N2)C(c2ccccc2)=c2ccc(n21)=C(c1ccccc1)C1=NC(=C3c2ccccc2)C=C1 |  | 1.14 |  | 0.321 | > 67.5 |  |  | > 100 |  | 0.247 | 0.124 |  | 0.121 |  |  |  |  |  | 
Nc1nc(=O)n(C2OC(CO)C(O)C2O)cc1F (stereo unspecified) |  | > 43.8 | > 100 | > 100 | > 100 | > 100 | > 100 | > 100 | > 100 |  | > 100 | > 56.4 |  |  |  |  |  |  | 
COc1ccc(C2=C(OC(C)=O)c3cccn3-c3ccccc3S2)cc1 | 0.877 | > 10 | > 10 | > 10 |  |  |  |  |  | > 10 | > 10 | > 10 | 1.44 |  |  |  |  |  | 
CCOc1ccc(N=Cc2cc(OC)c(OC)c(OC)c2)cc1 |  | > 100 | > 100 |  |  | > 100 | > 100 | > 100 | > 100 |  | > 100 | > 100 |  |  |  |  |  |  | 
CCCCCCCCCCCCCCCCCCNc1ccn(C2OC(CO)C(OP(=O)(O)OCC3CCC(n4ccc(N)nc4=O)O3)C2O)c(=O)n1 (stereo unspecified) | > 100 | 58.1 | > 100 |  | > 100 | 56.7 | > 100 |  |  | > 100 | > 100 | > 100 | > 100 |  |  |  |  |  | 
CCC(C)(C)NC1=C(NC(C)=O)C(=O)c2ccccc2C1=O |  | 41.3 | > 75 | > 75 |  | > 75 | > 75 |  | 53.4 |  | 70.7 | > 75 |  |  |  |  |  |  | 
N#Cc1c(N2CCOCC2)ncn(-c2ccccc2)c1=O | > 100 | > 100 |  | > 100 | > 100 | > 100 | > 100 | > 100 | > 100 |  | > 100 | > 100 | > 100 |  |  |  |  |  | 
